# Source: article PMC6894070, “The Plasmodium falciparum Hsp70-x chaperone assists the heat stress response of the malaria parasite” (The FASEB Journal, 2019)
# Legend:
# [1] = target: T1, Hsc70 (Homo sapiens, UniProt P11142); settings: 5 uM chaperone, 1 mM ATP, Mg2+, pH 8, 25 C
# T1 construct: gene HSPA8
# [2] = target: T2, PfHsp70-x (Plasmodium falciparum, UniProt A0A143ZXN1); assay: MESG-coupled ATPase assay; type: biochemical; settings: 5 uM chaperone alone, 1 mM ATP, pH 8, 25 C
# T2 construct: gene PF3D7_0831700; aa 25-679, export signal peptide excluded; codon-optimized synthetic DNA; N-terminal His6 tag cut by 3C protease; expressed in E. coli Rosetta2(DE3)
# [3] = target: T2, PfHsp70-x; assay: MESG-coupled ATPase assay; type: biochemical; settings: 5 uM chaperone alone, 1 mM ATP, pH 8, 25 C; remark: listed apart in the source
# T1 sequence (P11142 whole entry): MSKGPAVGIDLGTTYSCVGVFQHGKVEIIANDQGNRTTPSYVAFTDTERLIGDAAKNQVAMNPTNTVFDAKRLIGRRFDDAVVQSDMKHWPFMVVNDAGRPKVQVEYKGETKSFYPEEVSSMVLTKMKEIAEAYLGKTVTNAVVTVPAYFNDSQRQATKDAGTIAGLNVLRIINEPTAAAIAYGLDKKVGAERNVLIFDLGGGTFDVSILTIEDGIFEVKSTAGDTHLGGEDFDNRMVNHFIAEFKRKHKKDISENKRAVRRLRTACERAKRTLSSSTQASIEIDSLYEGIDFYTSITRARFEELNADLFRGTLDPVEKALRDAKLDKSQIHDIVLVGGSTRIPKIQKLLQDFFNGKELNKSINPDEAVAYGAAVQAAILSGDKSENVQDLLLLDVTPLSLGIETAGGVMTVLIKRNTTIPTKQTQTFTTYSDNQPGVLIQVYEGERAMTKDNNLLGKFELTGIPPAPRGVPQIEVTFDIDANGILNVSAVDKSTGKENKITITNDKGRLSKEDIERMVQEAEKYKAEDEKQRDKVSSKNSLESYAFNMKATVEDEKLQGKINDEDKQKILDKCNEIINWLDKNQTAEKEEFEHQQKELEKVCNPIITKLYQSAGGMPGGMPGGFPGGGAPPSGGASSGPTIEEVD
structure (smiles),measurement,setting,value
Nc1ncnc2c1ncn2[C@@H]1O[C@H](COP(=O)(O)OP(=O)(O)OP(=O)(O)O)[C@@H](O)[C@H]1O [ATP],MESG-coupled ATPase assay,[1],"fold changes in ATP hydrolysis activities of PfHsp70-x (A, B) or human Hsc70 (C, D)"
CN(C)c1ccc2nc3ccc(=[N+](C)C)cc-3sc2c1 [methylene blue],half-maximal inhibitory concentration,[2],methylene blue inhibits both basal and stimulated PfHsp70-x activity
"CC1(C)OC2=C(CC1Br)C(=O)C(=O)c1ccccc12 (stereo not drawn) [BBL, bromo-β-lapachona]",apparent half-maximal inhibitory concentration,[3],BBL inhibited PfHsp70-x in our ATPase assays with low micromolar apparent half-maximal inhibitory concentration
